Results published in patent US10502742B2, “Flourescent exomarker probes for hydrogen sulfide detection” (AMRITA VISHWA VIDYAPEETHAM, priority 2017, dated 2019).

Legend:
[1] = reference standard value; cited from earlier work
DU145 cells [2] = test: In vitro cytotoxicity, MTT assay; format: cell-based, Human; conditions: 48 h incubation
Procedure: (§1) Human cervical cancer cells (HeLa), breast cancer cells (MDA-MB-231), prostate cancer cells (DU 145) and 3T3-L1 fibroblast cells were cultured in DMEM high glucose media supplemented with 10% fetal bovine serum, 1% Penstrep, 0.2% Amphotericin B. The cells were grown overnight at 37° C. incubator with 5% CO2. HeLa, MDA-MB-231, DU 145, and 3T3-L1 cells were seeded at a density of 0.3×10^6 cells in 35 mm dish and kept overnight. The probe Mito-HS prepared in Example 1 was dissolved in 0.2% DMSO to make a stock concentration of 10 mM. The cells were treated with 5 μM of Mito-HS for 15 min. 300-550 nm excitation light was used to measure its fluorescence properties. Images were acquired using Zeiss Fluorescence Microscope (A1 Axiovert) with ×40 objective lens.
(§2) Prior to the application of probe in vitro, cytotoxicity study was performed to check its biocompatibility. HeLa, MDA-MB-231 and DU145 cells were considered to assess the cytotoxicity of Mito-HS by conventional MTT assay. The cells were treated with Mito-HS and incubated for 48 h.

HeLa cells [3] = test: In vitro cytotoxicity, MTT assay; format: cell-based, Human; conditions: 48 h incubation
Procedure: as §1, §2

MDA-MB-231 cells [4] = test: In vitro cytotoxicity, MTT assay; format: cell-based, Human; conditions: MDA-MB-231, MTT, 48 h incubation
Procedure: as §1, §2

[5] = Selectivity: fluorescence responses in the presence of biologically important analytes; conditions: Mito-HS 5 μM; PBS, 0.2% DMSO, pH 7.4, 37° C.; excitation 380 nm
Procedure: Fluorescence responses of Mito-HS (5 μM) in the presence of various biologically important analytes such as H2S, cysteine (Cys), H2O2, NaNO2, Cu(OAc)2, Zn(OAc)2, FeSO4, FeCl3, Na2CO3, GSH, and ascorbic acid (AA) NO, Na2S2O4 in aqueous solutions (in PBS, 0.2% DMSO, pH=7.4) at 37° C. were studied as shown in FIG. 5. Excitation wavelength was set at 380 nm and excitation and emission slit widths both set at 3 nm. Error bars were obtained from triplet experimental data. […] So, the experiment supported the proposed concept of using Mito-HS to track cellular H2S over other competing substances such as thiols.

3T3-L1 cells = test: Fluorescence microscopy of endogenous H2S in cells; format: cell-based; conditions: 3T3-L1 normal cells, similar conditions, even after an hour
Procedure: as §1
(§3) Fluorescence microscopic study was performed for Mito-HS treated and untreated cancer cells (HeLa, MDA-MB-231 and DU145 cells) and normal cell (3T3-L1 cells) by illuminating lights of 390 nm as excitation wavelength and monitoring the emission over 440-500 nm range. […] In contrast, Mito-HS pretreated normal cells were remained non-fluorescent under similar conditions even after an hour. The insufficient production of H2S in 3T3-L1 cells was responsible for their non-fluorescent images.

DU145 cells [6] = test: Fluorescence microscopy of endogenous H2S in cells; format: cell-based, Human
Procedure: as §1, §3
(§4) To assure that the fluorescence image of the Mito-HS treated cells were solely due to production of endogenous H2S instead of any other endogenous thiol-like entities such as GSH, cysteine and homocysteine, HeLa, MDA-MB-231 and DU145 cells were pretreated with a thiol-masking agent, here N-ethyl maleimide (NEM).

HeLa cells [7] = test: Fluorescence microscopy of endogenous H2S in cells; format: cell-based, Human
Procedure: as §1, §3, §4

MDA-MB-231 cells [8] = test: Fluorescence microscopy of endogenous H2S in cells; format: cell-based, Human
Procedure: as §1, §3, §4

[9] = Time-dependent fluorescence of Mito-HS in the presence of H2S; conditions: H2S (20.0 eq.)
Procedure: The environment of biological entities in cellular milieu is temporal, henceforth, the response time of probe for an analyte is crucial. Thus, time-dependent fluorescence data at λmax 450 nm were recorded in the presence of H2S (20.0 eq.). […] The rate of reaction of Mito-HS with H2S was calculated to be 5.4×10^−3 s^−1.

[10] = Fluorescence response of Mito-HS to variable concentrations of Na2S (H2S) in PBS
Procedure: UV-Vis and fluorescence spectroscopy was studied and changes of Mito-HS was recorded in variable concentrations of Na2S (0-200 μM) in PBS buffer solution containing 0.2% of DMSO at physiological pH (pH 7.4) to study the performance of the probe in H2S (Na2S) environment as shown in FIG. 3A-C. In FIG. 3A, the UV-Vis absorption band at λab 370 nm gradually decreases with the appearance of a new absorption band at λab 395 nm in the presence of variable concentrations of H2S.

[11] = Physiological pH stability study by fluorescence spectrometry; format: physicochemical
Text: The stability and reactivity of Mito-HS toward H2S in various physiological pH was studied in fluorescence spectrometry as shown in FIG. 6.

[12] = Detection of H2S in blood serum by fluorescence spectroscopy; conditions: fetal bovine serum (0.45 mM albumin protein), 37° C.; ex 380 nm, em 450 nm
Procedure: Fluorescence spectroscopy was performed for Mito-HS in fetal bovine serum at 37° C. Excitation and emission wavelengths were set at 380 nm and 450 nm respectively and slit widths at 3 nm.

[13] = Determination of fluorescence quantum yield; format: physicochemical; conditions: PBS 10 mM, pH 7.4, quinine standard
Procedure: The fluorescence quantum yield of Mito-HS was determined in the presence and absence of H2S in PBS buffer solution of 10 mM concentration and in the physiological pH of 7.4 taking quinine (ΦX=0.542) as standard. The fluorescence quantum yield was calculated by the equation: ΦS=ΦX (ASFS/AXFX), where, AS and AX are the absorbance of the sample and the reference, respectively; at the same excitation wavelength, FS and FX are the corresponding relative integrated fluorescence intensities. The quantum yield for Mito-HS calculated to be 0.045 was increased to 0.479 due to formation of FL-1 in the presence of H2S.

[14] = system: mitochondria of MDA MB 231 cells; test: Co-localization experiment with MitoSox Red; format: cell-based, Human
Procedure: (§5) In order to evaluate the mito-targeting nature of Triphenylphosphonium ion of Mito-HS, a co-localization experiment was carried out with MitoSox Red, which is a mitochondria targeting dye, to make a comparison study.

[15] = system: mitochondria of DU145 cells; test: Co-localization experiment with MitoSox Red; format: cell-based, Human
Procedure: as §5

[16] = system: mitochondria of HeLa cells; test: Co-localization experiment with MitoSox Red; format: cell-based, Human
Procedure: as §5

For C=C[C@H]1C[N@@]2CC[C@H]1C[C@H]2[C@H](O)c1ccnc2ccc(OC)cc12 [quinine], the “fluorescence quantum yield of standard (ΦX)” value [1] is listed as 0.542.

In the case of [N-]=[N+]=Nc1ccc2cc(C(=O)NCC[P+](c3ccccc3)(c3ccccc3)c3ccccc3)c(=O)oc2c1 [Mito-HS], the “cytotoxicity (cell viability)” value (DU145 cells [2]) is reported as “did not show cytotoxic behavior”, the “cytotoxicity (cell viability)” value (HeLa cells [3]) is reported as “did not show cytotoxic behavior” and the “cytotoxicity (cell viability)” value (MDA-MB-231 cells [4]) is reported as “did not show cytotoxic behavior”. The “fluorescence change with analytes other than H2S” value [5] was “none of the analytes showed considerable fluorescence change other than H2S”, the cell fluorescence image (3T3-L1 cells) was “non-fluorescent” and the cell fluorescence image (DU145 cells [6]; DU145, Mito-HS 5.0 μM, ex 390 nm, em 440-500 nm) was “strong fluorescence”. For the same compound, the “cell fluorescence after pretreatment with thiol-masking agent NEM” value (shortened to “cell fluorescence after pretreatment”) (DU145 cells [6]; DU145, NEM pretreated) was “equally fluorescent labeled”, the cell fluorescence image (HeLa cells [7]; Mito-HS 5.0 μM, ex 390 nm, em 440-500 nm) was “strong fluorescence” and the “cell fluorescence after pretreatment” value (HeLa cells [7]; NEM pretreated vs NEM untreated) was “equally fluorescent labeled”. The cell fluorescence image (MDA-MB-231 cells [8]; MDA-MB-231, Mito-HS 5.0 μM, ex 390 nm, em 440-500 nm) was “strong fluorescence”, the “cell fluorescence after pretreatment” value (MDA-MB-231 cells [8]; MDA-MB-231, NEM pretreated) was “equally fluorescent labeled” and the “rate of reaction of Mito-HS with H2S” value ([9]; fluorescence at λmax 450 nm) was 0.0054 s⁻¹. For the same compound, the “time at which fluorescence intensity plateaued” value ([9]; λmax 450 nm) was over 40 min, the “H2S concentration at fluorescence saturation point” value ([10]; H2S 0-200 μM added, λmax 450 nm) was 200 µM and the “fluorescence intensity increase in the presence of H2S” value ([10]; H2S 200 μM, λmax 450 nm, PBS pH 7.4, 0.2% DMSO) was about 43 fold. For the same compound, the “H2S concentration range detectable (physiological condition)” value ([10]; PBS pH 7.4, 0.2% DMSO) was 10-600 μM, the “lower detection limit for H2S” value ([10]; calculated by applying regression equation) was 24.3 nM and the “fluorescence intensity toward H2S at various pH” value ([11]; in H2S environment, pH 4-9) was “high fluorescence intensity was observed in H2S environment with sharp depreciation in lower pH range”. For the same compound, the “pH range in which stable” value ([11]; in absence of H2S, fluorescence spectrometry) was 4-9, the “increase of fluorescence intensity in blood serum” value [12] was 30 fold and the fluorescence quantum yield ([13]; absence of H2S) was 0.045. The fluorescence quantum yield ([13]; presence of H2S (formation of FL-1)) was 0.479, the subcellular localization [14] was “predominantly in mitochondria” and the subcellular localization [15] was “predominantly in mitochondria”. For the same compound, the subcellular localization [16] was “predominantly in mitochondria”.
